This note sets out measurements from US20250179055A1, “Substituted 2-(pyrrolidine-3-yl)acetic acid derivative, preparation method and use thereof” (INNOVSTONE THERAPEUTICS LIMITED, priority 2023, published 2025).

Structures are written as SMILES.

Data set [1] in a line: Pharmacokinetic test in C57BL/6J female mice. The conditions noted are these: mouse, plasma; for bioavailability: gavage 10 mg/kg vs intravenous 2 mg/kg. Type of data set: in vivo. The protocol:
C57BL/6J female mice were used as test animals, and the drug concentration in plasma of C57BL/6J female mice at different time points after intravenous and gavage administration was determined to study the pharmacokinetic characteristics of the compound in C57BL/6J female mice.
Drug formulation: a certain amount of compound was weighed and normal saline was added to prepare clear, colorless solutions of 0.4 mg/mL (IV) and 1 mg/mL (PO).
Test procedure: C57BL/6J female mice were fasted overnight before gavage administration, followed by non-fasted intravenous administration. The intravenous dose was 2 mg/kg, and the gavage dose was 10 mg/kg. Approximately 0.03 mL of blood was collected from the orbital venous plexus at 0.083 (IV), 0.25, 0.5, 1, 2, 4, 8 and 24 h after administration, respectively, placed in a centrifuge tube containing EDTA-K2, centrifuged at 3000 rpm/min at 2-8° C. for 10 min to obtain plasma, and stored at −80° C.
Determination of the content of the compound to be tested in plasma of C57BL/6J female mice at different blood collection time points: 10 μL of plasma of C57BL/6J female mice collected at each time point after administration of LY3473329 and the compound of this application was added with 200 μL of 500 mM trichloroacetic acid aqueous solution to precipitate protein, which contained 100 ng/mL internal standard, vortexed for 1 min, centrifuged at 14000 rpm for 7 min for samples treated with test tubes, and centrifuged at 4000 rpm for 10 min for samples treated with 96-well plates, and 190 μL of the supernatant was transferred to a 96-well plate, and 8 μL of the supernatant was injected for LC-MS/MS analysis. WO2023078333A1 Example 6:12 μL of plasma of C57BL/6J female mice collected at each time point after administration was added with 240 μL of methanol to precipitate protein, which contained 10 ng/mL internal standard, vortexed for 1 min, centrifuged at 14000 rpm for 7 min for samples treated with test tubes, and centrifuged at 4000 rpm for 10 min for samples treated with 96-well plates. 220 μL of the supernatant was transferred to a 96-well plate, and 10 μL of the supernatant was taken for LC-MS/MS analysis.
After plasma concentrations were determined by LC/MS/MS analysis method, pharmacokinetic parameters (e.g. Cmax, AUC, T1/2, etc.) were calculated using WinNonlin software and noncompartmental analysis.

A further data set deals with serum Lp(a). Description: Humanized mouse Lp(a) inhibition test. In kind it is in vivo, humanized Lp(a) transgenic mouse. The conditions noted are these: blood 8 h after last dose, humanized Lp(a) mice. As to the method: The in vivo pharmacodynamics of the compounds in reducing Lp(a) was evaluated in a humanized Lp(a) transgenic mouse model. Lp(a) mice were obtained by crossing mice expressing humanized apoB-100 with mice expressing humanized apo(a) containing 16 Kringle repeats. Female mice aged 8-9 weeks were selected for the test. Housing conditions: standard light cycle (12 h light/12 h dark), temperature 20-25° C., humidity 40-70%, free access to water and normal diet. is One day before the test, mice were divided into vehicle control group and test article group (n=5/group) according to body weight and baseline plasma Lp(a) concentration. Mice were orally administered with vehicle (normal saline, 10 mL/kg) or test compound (prepared with normal saline to 3 or 0.5 mg/mL, each mouse received 10 mL/kg), once daily (9:00 am) for 3 consecutive days, and blood was collected to determine the change of serum Lp(a). Eight hours after the last dose, 10 μL of blood was collected from the tail vein and transferred to a 1.5 mL centrifuge tube containing 90 μL of normal saline, mixed well, and left to stand on ice for 30 min. The above samples were centrifuged at 4° C., 3000 rpm for 10 min, and the supernatant was collected and placed on ice. The Lp(a) concentration in the supernatant was measured by double-antibody sandwich ELISA using an anti-apo(a) capture antibody and an HRP-conjugated anti-ApoB detection antibody, with TMB for color development. The reaction was stopped with 1 N sulfuric acid, and the OD value was read at 450 nm on a Tecan microplate reader. Inhibition rate was calculated for each dosing group. Inhibition rate (%)=(vehicle control group Lp(a) concentration or self pre-dose Lp(a) concentration post-dose Lp(a) concentration)/vehicle control group Lp(a) concentration or self pre-dose Lp(a) concentration*100.

The target in data set [2] is Lp(a) assembly in HepG2 cells overexpressing ApoA protein (Homo sapiens (Human), UniProt P08519). Description: ELISA assay on screening Lp(a) assembly inhibition. The conditions noted are these: HepG2 cells overexpressing ApoA protein, 24 h, ELISA of supernatant. In kind it is cell-based. The method, boiled down:
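HepG2 cells overexpressing ApoA treated with diluted compounds for 24 h at 37 °C, 5% CO2; EACA (10 μL of 1.5 M) added before harvesting supernatant. Secreted Lp(a) quantified by sandwich ELISA; IC50 from four-parameter Hill fit of % inhibition versus concentration.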
On the technique in general: An ELISA detects its analyte on a solid surface through an enzyme-linked reagent.

Where [3] appears, read: intravenous administration, 2 mg/kg.
Setting [4] is: po, gavage administration, 10 mg/kg.
Setting [5] is: 5 mg/kg oral once daily for 3 days.

Sequence of Lp(a) assembly in HepG2 cells overexpressing ApoA protein (P08519 20-2040): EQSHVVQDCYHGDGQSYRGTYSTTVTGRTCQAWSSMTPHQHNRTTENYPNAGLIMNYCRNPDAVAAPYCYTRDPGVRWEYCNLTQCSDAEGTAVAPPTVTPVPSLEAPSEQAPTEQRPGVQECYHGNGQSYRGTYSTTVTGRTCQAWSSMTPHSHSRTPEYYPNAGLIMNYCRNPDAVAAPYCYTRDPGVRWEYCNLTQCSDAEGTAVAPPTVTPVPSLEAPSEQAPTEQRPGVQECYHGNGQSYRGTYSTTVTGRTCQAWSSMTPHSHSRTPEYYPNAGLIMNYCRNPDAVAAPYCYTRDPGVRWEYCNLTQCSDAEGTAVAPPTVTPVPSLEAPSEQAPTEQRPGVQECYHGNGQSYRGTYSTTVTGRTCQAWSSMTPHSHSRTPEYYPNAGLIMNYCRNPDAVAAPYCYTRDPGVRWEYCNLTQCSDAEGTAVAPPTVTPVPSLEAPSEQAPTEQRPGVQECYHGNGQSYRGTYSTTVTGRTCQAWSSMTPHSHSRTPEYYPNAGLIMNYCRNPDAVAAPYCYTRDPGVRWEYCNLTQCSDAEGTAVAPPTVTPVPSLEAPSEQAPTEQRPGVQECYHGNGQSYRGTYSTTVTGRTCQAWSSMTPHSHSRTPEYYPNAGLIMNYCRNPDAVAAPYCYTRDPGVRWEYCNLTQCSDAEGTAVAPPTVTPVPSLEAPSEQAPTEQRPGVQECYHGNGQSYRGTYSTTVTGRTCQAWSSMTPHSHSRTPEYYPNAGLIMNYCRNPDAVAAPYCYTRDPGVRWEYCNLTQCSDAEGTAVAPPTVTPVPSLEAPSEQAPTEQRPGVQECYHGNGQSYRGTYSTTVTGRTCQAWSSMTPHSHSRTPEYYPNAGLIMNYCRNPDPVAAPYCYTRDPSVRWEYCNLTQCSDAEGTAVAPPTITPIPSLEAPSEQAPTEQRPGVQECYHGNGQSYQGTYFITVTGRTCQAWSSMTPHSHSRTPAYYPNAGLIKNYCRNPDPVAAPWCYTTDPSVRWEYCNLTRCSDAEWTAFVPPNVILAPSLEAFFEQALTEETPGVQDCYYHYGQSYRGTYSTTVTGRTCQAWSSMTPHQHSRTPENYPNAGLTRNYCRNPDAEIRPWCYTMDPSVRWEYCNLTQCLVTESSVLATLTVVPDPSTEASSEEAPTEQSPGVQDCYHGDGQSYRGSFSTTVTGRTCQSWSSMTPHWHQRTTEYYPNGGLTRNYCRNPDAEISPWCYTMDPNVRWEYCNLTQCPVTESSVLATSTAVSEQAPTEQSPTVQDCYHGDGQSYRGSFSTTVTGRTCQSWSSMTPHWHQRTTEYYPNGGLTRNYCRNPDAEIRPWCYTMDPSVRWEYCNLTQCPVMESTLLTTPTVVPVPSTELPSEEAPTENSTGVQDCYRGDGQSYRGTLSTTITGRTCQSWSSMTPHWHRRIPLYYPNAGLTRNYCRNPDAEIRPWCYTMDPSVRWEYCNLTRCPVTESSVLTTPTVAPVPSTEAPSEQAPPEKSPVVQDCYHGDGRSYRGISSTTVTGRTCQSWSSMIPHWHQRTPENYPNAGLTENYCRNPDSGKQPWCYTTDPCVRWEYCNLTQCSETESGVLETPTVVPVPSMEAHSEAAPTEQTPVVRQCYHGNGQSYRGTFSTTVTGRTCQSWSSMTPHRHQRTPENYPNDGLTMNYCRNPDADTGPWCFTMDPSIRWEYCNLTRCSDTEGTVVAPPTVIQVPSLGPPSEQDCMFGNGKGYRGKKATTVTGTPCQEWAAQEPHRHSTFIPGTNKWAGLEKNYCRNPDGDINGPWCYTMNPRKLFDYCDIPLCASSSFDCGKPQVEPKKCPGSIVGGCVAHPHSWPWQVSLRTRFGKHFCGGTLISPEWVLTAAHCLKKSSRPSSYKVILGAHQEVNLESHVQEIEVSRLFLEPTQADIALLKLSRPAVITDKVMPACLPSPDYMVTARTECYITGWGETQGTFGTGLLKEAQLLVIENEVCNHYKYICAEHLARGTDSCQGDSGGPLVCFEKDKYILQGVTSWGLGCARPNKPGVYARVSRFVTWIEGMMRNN

In data set [1] (setting [3]), `O=C(O)[C@@H](Cc1cccc(CC(=O)N(CCOc2cccc(C[C@H](C(=O)O)[C@H]3CCNC3)c2)Cc2cccc(C[C@H](C(=O)O)[C@H]3CCNC3)c2)c1)[C@H]1CCNC1` [Compound 96, (S)-3-(3-(2-((3-((S)-2-carboxy-2-((R)-pyrrolidin-3-yl)ethyl)benzyl)(2-(3-((S)-2-carboxy-2-((R)-pyrrolidin-3-yl)ethyl)phenoxy)ethyl)amino)-2-oxoethyl)phenyl)-2-((R)-pyrrolidin-3-yl)propanoic acid] gave an AUC of 22900 ng·h/mL and a half-life of 23.3 h. Further, the bioavailability in data set [1] (po) was 13.9%. In data set [1] (setting [4]), this compound gave an AUC of 12400 ng·h/mL, a Cmax of 919 ng/mL and a half-life of 11.4 h. Moreover, in the data set on serum Lp(a) (setting [5]), the “Lp(a) Inhibition Rate” value turned out to be 91%. Further, the “Lp(a) Inhibition Rate” value with serum Lp(a) (30 mg/kg oral once daily for 3 days) turned out to be 96%. Moreover, the IC50 in data set [2] was found to be 0.58 nM.
`O=C(O)[C@@H](Cc1cccc(CC(=O)N(CCOc2cccc(C[C@H](C(=O)O)[C@H]3CCNC3)c2)CCOc2cccc(C[C@H](C(=O)O)[C@H]3CCNC3)c2)c1)[C@H]1CCNC1` [Compound 111, (2S,2′S)-3,3′-(((((2-(3-((S)-2-carboxy-2-((R)-pyrrolidin-3-yl)ethyl)phenyl)acetyl)azanediyl)bis(ethane-2,1-diyl))bis(oxy))bis(3,1-phenylene))bis(2-((R)-pyrrolidin-3-yl)propanoic acid)]: in the data set on serum Lp(a) (setting [5]), the “Lp(a) Inhibition Rate” value is reported as 92%. For the same compound, the IC50 in data set [2] was 1.02 nM.
Take `O=C(O)[C@@H](Cc1cccc(OCCN(CCOc2cccc(C[C@H](C(=O)O)[C@H]3CCNC3)c2)C(=O)COc2cccc(C[C@H](C(=O)O)[C@H]3CCNC3)c2)c1)[C@H]1CCNC1` [Compound 113, (2S,2′S)-3,3′-(((((2-(3-((S)-2-carboxy-2-((R)-pyrrolidin-3-yl)ethyl)phenoxy)acetyl)azanediyl)bis(ethane-2,1-diyl))bis(oxy))bis(3,1-phenylene))bis(2-((R)-pyrrolidin-3-yl)propanoic acid)]: in the data set on serum Lp(a) (setting [5]), the “Lp(a) Inhibition Rate” value was 79%. The compound further returned an IC50 in data set [2] of 1.17 nM.
On to `O=C(O)[C@@H](Cc1cccc(CN(CCOc2cccc(C[C@H](C(=O)O)[C@H]3CCNC3)c2)C(=O)Nc2cccc(C[C@H](C(=O)O)[C@H]3CCNC3)c2)c1)[C@H]1CCNC1` [Compound 131, (S)-3-(3-(3-(3-((S)-2-carboxy-2-((R)-pyrrolidin-3-yl)ethyl)benzyl)-3-(2-(3-((S)-2-carboxy-2-((R)-pyrrolidin-3-yl)ethyl)phenoxy)ethyl)ureido)phenyl)-2-((R)-pyrrolidin-3-yl)propanoic acid], for which, in data set [1] (setting [3]), the AUC was 31300 ng·h/mL and the half-life was 33.7 h. In data set [1] (po), this compound displayed a bioavailability of 13.2%. In data set [1] (setting [4]), this compound gave an AUC of 14300 ng·h/mL, a Cmax of 893 ng/mL and a half-life of 16 h. Moreover, the “Lp(a) Inhibition Rate” value in the data set with serum Lp(a) (setting [5]) turned out to be 81%. In data set [2], this compound had an IC50 of 1.19 nM.
For the compound `O=C(O)[C@@H](Cc1cccc(CN(CCOc2cccc(C[C@H](C(=O)O)[C@H]3CCNC3)c2)C(=O)Sc2cccc(C[C@H](C(=O)O)[C@H]3CCNC3)c2)c1)[C@H]1CCNC1` [Compound 138, (S)-3-(3-(2-((3-((S)-2-carboxy-2-((R)-pyrrolidin-3-yl)ethyl)benzyl)(((3-((S)-2-carboxy-2-((R)-pyrrolidin-3-yl)ethyl)phenyl)thio)carbonyl)amino)ethoxy)phenyl)-2-((R)-pyrrolidin-3-yl)propanoic acid], the “Lp(a) Inhibition Rate” value in the data set on serum Lp(a) (setting [5]) is recorded as 88%. Moreover, in data set [2], the IC50 came to 2 nM.
For `O=C(O)[C@@H](Cc1cc(F)cc(CC(=O)N(CCOc2cc(F)cc(C[C@H](C(=O)O)[C@H]3CCNC3)c2)Cc2cc(F)cc(C[C@H](C(=O)O)[C@H]3CCNC3)c2)c1)[C@H]1CCNC1` [Compound 152, (S)-3-(3-(2-((3-((S)-2-carboxy-2-((R)-pyrrolidin-3-yl)ethyl)-5-fluorobenzyl)(2-(3-((S)-2-carboxy-2-((R)-pyrrolidin-3-yl)ethyl)-5-fluorophenoxy)ethyl)amino)-2-oxoethyl)-5-fluorophenyl)-2-((R)-pyrrolidin-3-yl)propanoic acid], in that order: 90% and 1.26 nM.
In data set [1] (setting [3]), `O=C(O)[C@@H](Cc1cccc(CC(=O)N(CCCOc2cccc(C[C@H](C(=O)O)[C@H]3CCNC3)c2)Cc2cccc(C[C@H](C(=O)O)[C@H]3CCNC3)c2)c1)[C@H]1CCNC1` [Compound 159, (S)-3-(3-(2-((3-((S)-2-carboxy-2-((R)-pyrrolidin-3-yl)ethyl)benzyl)(3-(3-((S)-2-carboxy-2-((R)-pyrrolidin-3-yl)ethyl)phenoxy)propyl)amino)-2-oxoethyl)phenyl)-2-((R)-pyrrolidin-3-yl)propanoic acid] gave an AUC of 33400 ng·h/mL and a half-life of 35.5 h. For the same compound, the bioavailability in data set [1] (po) came to 13.5%. Besides, in data set [1] (setting [4]), the AUC came out at 21000 ng·h/mL, the Cmax is 874 ng/mL and the half-life was 28.9 h. In addition, the “Lp(a) Inhibition Rate” value in the data set with serum Lp(a) (setting [5]) was determined as 84%. The compound also had an IC50 in data set [2] of 1.68 nM.
In the case of `O=C(O)[C@@H](Cc1cccc(CCN(CCOCc2cccc(C[C@H](C(=O)O)[C@H]3CCNC3)c2)C(=O)Cc2cccc(C[C@H](C(=O)O)[C@H]3CCNC3)c2)c1)[C@H]1CCNC1` [Compound 161, (S)-3-(3-(2-((2-((3-((S)-2-carboxy-2-((R)-pyrrolidin-3-yl)ethyl)benzyl)oxy)ethyl)(3-((S)-2-carboxy-2-((R)-pyrrolidin-3-yl)ethyl)phenethyl)amino)-2-oxoethyl)phenyl)-2-((R)-pyrrolidin-3-yl)propanoic acid], the “Lp(a) Inhibition Rate” value with serum Lp(a) (setting [5]) is on record as 83%. The compound also returned an IC50 in data set [2] of 1.89 nM.
Consider `COc1cc(CC(=O)N(CCOc2cc(C[C@H](C(=O)O)[C@H]3CCNC3)cc(OC)c2)Cc2cc(C[C@H](C(=O)O)[C@H]3CCNC3)cc(OC)c2)cc(C[C@H](C(=O)O)[C@H]2CCNC2)c1` [Compound 176, (S)-3-(3-(2-((3-((S)-2-carboxy-2-((R)-pyrrolidin-3-yl)ethyl)-5-methoxybenzyl)(2-(3-((S)-2-carboxy-2-((R)-pyrrolidin-3-yl)ethyl)-5-methoxyphenoxy)ethyl)amino)-2-oxoethyl)-5-methoxyphenyl)-2-((R)-pyrrolidin-3-yl)propanoic acid], for which the “Lp(a) Inhibition Rate” value in the data set on serum Lp(a) (setting [5]) is 78%. This compound also yielded an IC50 in data set [2] of 1.81 nM.
The corresponding values for `O=C(O)[C@@H](Cc1cccc(CC(=O)N(CCOc2cccc(C[C@H](C(=O)O)[C@H]3CCNC3)c2)Cc2cc(C[C@H](C(=O)O)[C@H]3CCNC3)cs2)c1)[C@H]1CCNC1` [Compound 177, (S)-3-(3-(2-((2-(3-((S)-2-carboxy-2-((R)-pyrrolidin-3-yl)ethyl)phenoxy)ethyl)((4-((S)-2-carboxy-2-((R)-pyrrolidin-3-yl)ethyl)thiophen-2-yl)methyl)amino)-2-oxoethyl)phenyl)-2-((R)-pyrrolidin-3-yl)propanoic acid] are 90% and 1.26 nM.

In general, AUC refers to concentration integrated over time. As a reminder, the half-life is the time in which the quantity being followed falls by half. A high value points to slow loss. The bioavailability is dose-corrected exposure relative to a reference, in per cent. What is called Cmax is the peak of the concentration-time curve. As usually defined, the IC50 is the concentration at which inhibition is half-maximal. A higher IC50 goes with weaker potency in that assay.
